Measured values: patent US11926614B2, “1,2,4-triazole derivatives as tankyrase inhibitors” (priority 2018, dated 2024)
Like-named read-outs stand apart in the source and are kept apart here.

Experiments:
[1] = molecular target: TNKS2 (Homo sapiens (Human), UniProt Q9H2K2); experiment: Biochemical IC50 TNKS2
Source text: (§1) XLfit (idbs) was used to determine the IC50-values in inhibition experiments. The following formula was chosen to fit the data points (Langmuir Binding Isotherm): fit=((A+(B*x))+4(C−B)*(1−exp((−1*D)*x)))/D)), res=(y−fit)

[2] = system: HEK293; experiment: Cellular IC50 HEK293; type: cell-based; details: Homo sapiens
Source text: as §1

[3] = read-out: Biochemical IC50 TNKS2
[4] = HEK293, HEK293, read-out: Cellular IC50 HEK293
[5] = HEK293, read-out: Cellular IC50 HEK293

Chain of TNKS2 (Q9H2K2 whole entry): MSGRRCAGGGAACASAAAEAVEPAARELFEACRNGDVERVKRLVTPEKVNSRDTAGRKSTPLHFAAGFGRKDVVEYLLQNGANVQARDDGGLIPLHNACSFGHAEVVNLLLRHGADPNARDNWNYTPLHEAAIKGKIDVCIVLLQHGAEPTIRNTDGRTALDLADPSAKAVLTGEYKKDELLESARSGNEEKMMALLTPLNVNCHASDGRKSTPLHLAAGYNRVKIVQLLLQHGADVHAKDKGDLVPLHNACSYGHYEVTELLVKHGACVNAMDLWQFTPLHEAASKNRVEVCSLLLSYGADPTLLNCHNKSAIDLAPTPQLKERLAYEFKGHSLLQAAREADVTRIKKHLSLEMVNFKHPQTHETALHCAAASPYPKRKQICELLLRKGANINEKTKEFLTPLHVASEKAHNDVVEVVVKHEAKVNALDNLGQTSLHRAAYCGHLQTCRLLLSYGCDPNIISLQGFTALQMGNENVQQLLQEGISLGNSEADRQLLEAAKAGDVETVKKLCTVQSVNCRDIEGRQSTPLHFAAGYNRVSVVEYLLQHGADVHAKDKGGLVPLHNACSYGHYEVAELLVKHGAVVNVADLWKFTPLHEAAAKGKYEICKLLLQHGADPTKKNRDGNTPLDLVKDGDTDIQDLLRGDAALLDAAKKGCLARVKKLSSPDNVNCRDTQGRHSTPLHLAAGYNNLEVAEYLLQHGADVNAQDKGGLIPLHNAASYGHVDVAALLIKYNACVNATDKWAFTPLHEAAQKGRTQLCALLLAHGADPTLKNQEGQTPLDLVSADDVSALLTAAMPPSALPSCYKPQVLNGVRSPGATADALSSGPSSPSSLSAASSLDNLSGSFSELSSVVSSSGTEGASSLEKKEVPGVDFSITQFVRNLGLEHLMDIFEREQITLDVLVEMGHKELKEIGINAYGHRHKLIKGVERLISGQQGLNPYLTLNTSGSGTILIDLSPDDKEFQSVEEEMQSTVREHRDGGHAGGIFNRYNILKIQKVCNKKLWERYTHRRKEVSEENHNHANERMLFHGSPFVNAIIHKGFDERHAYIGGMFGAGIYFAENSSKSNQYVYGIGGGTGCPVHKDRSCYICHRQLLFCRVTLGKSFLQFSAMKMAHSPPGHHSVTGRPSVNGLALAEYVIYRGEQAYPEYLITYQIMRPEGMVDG

O=C(N[C@H]1C[C@H](c2nnc(-c3ccccc3)n2-c2ccccc2F)C1)c1ccc(F)cn1 [Example 175, 5-fluoro-N-((1S,3r)-3-(4-(2-fluorophenyl)-5-phenyl-4H-1,2,4-triazol-3-yl)cyclobutyl)picolinamide]
IC50 [1, 3]: 150 nM | IC50 [2, 4]: 499 nM

CCOc1ccc(-c2nnc([C@H]3C[C@H](NC(=O)c4ccnc5cccnc45)C3)n2-c2ccc(Cl)s2)nc1 [Example 76, N-((1r,3r)-3-(4-(5-chlorothiophen-2-yl)-5-(5-ethoxypyridin-2-yl)-4H-1,2,4-triazol-3-yl)cyclobutyl)-1,5-naphthyridine-4-carboxamide]
IC50 [1, 3]: 2 nM | IC50 [2, 4]: 1.1 nM

CCOc1ccc(-c2nnc([C@H]3C[C@H](NC(=O)c4ccc(C(C)(C)O)cn4)C3)n2-c2ccccc2F)nc1 [Example 101, N-((1S,3r)-3-(5-(5-ethoxypyridin-2-yl)-4-(2-fluorophenyl)-4H-1,2,4-triazol-3-yl)cyclobutyl)-5-(2-hydroxypropan-2-yl)picolinamide]
IC50 [1, 3]: 22 nM | IC50 [2, 4]: 96 nM

O=C(N[C@H]1C[C@H](c2nnc(-c3ccccc3)n2-c2ccccc2F)C1)c1ccnc2cc(F)cnc12 [Example 177, 7-fluoro-N-((1S,3r)-3-(4-(2-fluorophenyl)-5-phenyl-4H-1,2,4-triazol-3-yl)cyclobutyl)-1,5-naphthyridine-4-carboxamide]
IC50 [1, 3]: 3.8 nM | IC50 [2, 4]: 25 nM

O=C(N[C@H]1C[C@H](c2nnc(-c3nccs3)n2-c2ccccc2)C1)c1ccccc1 [Example 34, N-((1r,3r)-3-(4-phenyl-5-(thiazol-2-yl)-4H-1,2,4-triazol-3-yl)cyclobutyl)benzamide]
IC50 [1, 3]: 290 nM | IC50 [2, 4]: 921 nM

O=C(N[C@H]1C[C@H](c2nnc(-c3nccs3)n2-c2ccc(Cl)s2)C1)c1ccnc2cccnc12 [Example 78, N-((1r,3r)-3-(4-(5-chlorothiophen-2-yl)-5-(thiazol-2-yl)-4H-1,2,4-triazol-3-yl)cyclobutyl)-1,5-naphthridine-4-carboxamide]
IC50 [1, 3]: 2 nM | IC50 [2, 4]: 1.1 nM

[2H]C([2H])([2H])C([2H])([2H])Oc1ccc(-c2nnc([C@H]3C[C@H](NC(=O)c4cnn5ccccc45)C3)n2-c2ccccc2F)nc1 [Example 142, N-((1S,3r)-3-(5-(5-(ethoxy-d5)pyridin-2-yl)-4-(2-fluorophenyl)-4H-1,2,4-triazol-3-yl)cyclobutyl)pyrazolo[1,5-a]pyridine-3-carboxamide]
IC50 [1]: 23 nM | IC50 [2, 4]: 55 nM

CS(=O)(=O)c1ccc(-c2nnc([C@H]3C[C@H](NC(=O)c4ccc(F)cn4)C3)n2-c2ccccc2F)nc1 [Example 107, 5-fluoro-N-((1S,3r)-3-(4-(2-fluorophenyl)-5-(5-(methylsulfonyl)pyridin-2-yl)-4H-1,2,4-triazol-3-yl)cyclobutyl) picolinamide]
IC50 [1, 3]: 5.7 nM | IC50 [2, 4]: 32 nM

CCOc1ccc(-c2nnc([C@H]3C[C@H](NC(=O)c4ccnc5cccnc45)C3)n2-c2cccnc2)nc1 [Example 162, N-((1r,3r)-3-(5-(5-ethoxypyridin-2-yl)-4-(pyridin-3-yl)-4H-1,2,4-triazol-3-yl)cyclobutyl)-1,5-naphthyridine-4-carboxamide]
IC50 [1, 3]: 4.5 nM | IC50 [2, 5]: 16 nM

CCOc1ccc(-c2nnc([C@H]3C[C@H](NC(=O)c4ccnc5cc(F)cnc45)C3)n2-c2ccncc2)nc1 [Example 170, N-((1r,3r)-3-(5-(5-ethoxypyridin-2-yl)-4-(pyridin-4-yl)-4H-1,2,4-triazol-3-yl)cyclobutyl)-7-fluoro-1,5-naphthyridine-4-carboxamide]
IC50 [1, 3]: 2.9 nM | IC50 [2, 5]: 6 nM

CCOc1ccc(-c2nnc(C34CC(NC(=O)c5ccnc6cccnc56)(C3)C4)n2-c2ccccc2)nc1 [Example 64, N-(3-(5-(5-ethoxypyridin-2-yl)-4-phenyl-4H-1,2,4-triazol-3-yl)bicyclo[1.1.1]pentan-1-yl)-1,5-naphthyridine-4-carboxamide]
IC50 [1, 3]: 1.4 nM | IC50 [2, 4]: 3 nM

CCOc1ccc(-c2nnc([C@H]3C[C@H](NC(=O)c4ccc5cc(F)ccc5n4)C3)n2-c2ccccc2F)nc1 [Example 155, N-((1S,3r)-3-(5-(5-ethoxypyridin-2-yl)-4-(2-fluorophenyl)-4H-1,2,4-triazol-3-yl)cyclobutyl)-6-fluoroquinoline-2-carboxamide]
IC50 [1, 3]: 9.1 nM | IC50 [2, 4]: 12 nM

O=C(N[C@H]1C[C@H](c2nnc(-c3nccs3)n2-c2ccc(Cl)s2)C1)c1ccccn1 [Example 79, N-((1r,3r)-3-(4-(5-chlorothiophen-2-yl)-5-(thiazol-2-yl)-4H-1,2,4-triazol-3-yl)cyclobutyl)picolinamide]
IC50 [1, 3]: 27 nM | IC50 [2, 4]: 140 nM
